Source: patent US11932622B1, “2-(1-(2-hydroxypropyl)-4,5-diphenyl-1H-imidazol-2-yl)pyridine as an anticancer compound” (KING FAISAL UNIVERSITY, priority 2023, dated 2024)

Legend:
[1] = tested on: human prostate cancer cells (PC3); test: Assessment of cytotoxicity by SRB assay (PC3); type: cell-based; conditions: 0.01 μM to 100 μM, 72 h
Procedure: (§1) The human prostate cancer cells (PC3) and human osteosarcoma cells (MG-63) were obtained from Nawah Scientific Inc. (Mokatam, Cairo, Egypt) and cultured in DMEM (Dulbecco's modified eagle's medium), Gibco, USA, supplemented with fetal bovine serum (FBS) at a concentration of 10% and 100 U/mL of penicillin and streptomycin (PS). The Cells were incubated at 37° C. in a humidified environment that contained 5% C02.
(§2) Cells were seeded in 96-well plates as aliquots of 100 μL cell suspension and incubated in a complete media for 24 h. Afterward, cells were treated with 2-(1-(2-hydroxypropyl)-4,5-diphenyl-1H-imidazol-2-yl)pyridine at diverse concentrations ranging from 0.01 μM to 100 μM for 72 h. Then, cells were fixed at 4° C. for one hour with 150 μL of 10% trichloroacetic acid (TCA). After washing the cells five times with distilled water, 70 μL of sulforhodamine (SRB) solution (0.4% w/v) was added and incubated for 10 min at room temperature in a dark place. […] Then, 150 μL of Tris pH 10.5 (10 mM) was added, and the absorbance was measured at 540 nm using a BMG LABTECH®-FLUOstar Omega microplate reader (Ortenberg, Germany). Half maximal inhibitory concentrations (IC50) values were calculated for each experiment using GraphPad Prism 6 software. […]
(§3) The inhibition was calculated using the following equation: Inhibition %=100−Average Viability

[2] = tested on: human osteosarcoma cells (MG-63); test: Assessment of cytotoxicity by SRB assay (MG-63); type: cell-based; conditions: 0.01 μM to 100 μM, 72 h
Procedure: as §1, §2, §3

With `CC(O)Cn1c(-c2ccccn2)nc(-c2ccccc2)c1-c1ccccc1` (stereo not drawn) [2-(1-(2-hydroxypropyl)-4,5-diphenyl-1H-imidazol-2-yl)pyridine] the “antiproliferative activity against prostate cancer cells (PC3)” value [1] was “excellent antiproliferative activities”, the “antiproliferative activity against osteosarcoma (MG-63) cells” value [2] was “excellent antiproliferative activities” and the melting point was 112 to 114 °C.
